# Laboratory results: patent publication US9655822B2, “Hydrated lamellar phases or liposomes which contain a fatty monoamine or a cationic polymer which promotes intracellular penetration, and a cosmetic or pharmaceutical composition containing same, as well as a method of screening such a substance” (BASF Beauty Care Solutions France S.A.S., priority 2004, dated 2017)
# What was measured:
# normal human fibroblasts [1] = assay: Intracellular penetration of fluorescent tracers, free or in liposomes (spectrofluorimetry); format: cell-based; details: for cell-permeating: free probe; for Penetration in liposome: probe encapsulated in liposome; for Penetration (fluorescence after washing): 0.01% tracer in liposomes; for Penetration (fluorescence after washing) / Penetration free probe: 24 hours, gain (45 PFB-F, 50 TRITC)
# Description: (§1) The selection of the tracer necessitated the preparation and the purification of liposomes, according to the protocol described in Example 1, these liposomes containing varying concentrations of the various hydrosoluble or liposoluble tracers (Table 1, Annex 1). The controls—a free fluorescent tracer—are made by dissolution at the same concentration of fluorescent tracer in the dilution buffer, so as to quantify its cytotoxicty and its spontaneous penetration in the fibroblasts.
# Practically, after extraction from a biopsy originating from abdominal plastic surgery, the fibroblasts are amplified in DF medium, i.e.: DMEM (Dulbecco's Modified Eagle's Medium)/Ham F12 glutamax 50/50 volume/volume, supplemented with 10% of calf serum, with penicillin at a final concentration of 100 UI/millilitre, with gentamicin at a final concentration of 1 microgram/millilitre, with amphotericin B at a final concentration of 1 microgram/millilitre.
# Firstly, after centrifugation, the purified liposomes are taken up into DF culture medium, homogenised in a vortex, and are deposited at the rate of 1 ml per well on the fibroblasts cultivated in 24-well plates (Costar MW24). The controls are made under the same conditions. A non-treated control is also made.
# (§2) The fibroblasts are incubated for 24 hours at 37° C. in the presence of the liposomes, and are then rinsed 3 times in pH 7.4 phosphate buffer. First of all, the fluorescence is evaluated dry by spectrofluorimetry with a Cytofluor 4000® (Millipore). Secondly, the intracellular fluorescence is observed for the molecules of interest on an Olympus® reverse microscope (IX70) by using the corresponding excitation filter (objective ×10, ×40 and ×100). Finally, the cytotoxicity of the fluorescent tracers is evaluated in a 96-well plate by incubation for 24 hours as described in Example 1.
# The intracellular penetration of liposomes which contain 5% of soya lecithin, 0.01% of PFB-F or TRITC in the presence or not of 0.5% 25 kDa polyethylenimine (PEI), which are prepared according to the protocol described in Example 1, is analysed after incubation for 24 hours on human fibroblasts cultivated in a 24-well plate, as described in Example 2.
# normal human fibroblasts [2] = assay: Cytotoxicity of the fluorescent tracers (paranitrophenylphosphate test); format: cell-based; details: for Cell viability (% of untreated control): incubation 24 hours
# Protocol: Each concentration is tested on 6 different wells.
# as §1, §2
# [3] = Encapsulation of fluorescent tracer in soya lecithin liposomes (yield, leak); format: physicochemical
# Protocol: 0.5 g of soya lecithin, 0.01% of fluorescent tracer which is pre-solubilised according to the recommendations of the provider, are introduced into a dish and is diluted in 10 ml of Trizma buffer. After magnetic agitation for 30 minutes at ambient temperature, the mixture is vigorously homogenised for 10 minutes, in thus obtaining a liposomal solution in which the liposomes have an average size which can vary between 100 and 800 nanometres according to the exact conditions of homogenisation.
# The aim of the purification step is to separate the non-encapsulated tracer fraction from the fraction of tracer which is encapsulated in the liposomes. For this, the liposomal solution is centrifuged in a conical tube for 10 minutes at 1,790 g at ambient temperature. The plugs are then recovered and then solubilised in 10 ml of culture medium.
# Liposomes are prepared according to the method described in Example 5 with increasing concentrations of 25 kDa PEI from 0 to 100 μM. After centrifugation at 1,790 g for 10 minutes, the supernatants are quantified by spectrofluorimetry. The yields of encapsulation are calculated with respect to the initial concentration.
# tyrosinase = target: T1, tyrosinase (Homo sapiens, UniProt P14679); assay: Tyrosinase activity in melanocytes (L-DOPA/MBTH); format: cell-based; parameters: unit not given here; details: 66 hours; for Depigmenting effect: rate of enzymatic reaction (tyrosinase activity), Free: active applied free, normal human melanocytes; for Depigmenting effect: rate of enzymatic reaction (tyrosinase activity), PEI Liposome: active in 10 μM PEI functionalised liposome; for Depigmenting effect: rate of enzymatic reaction (tyrosinase activity), Soya liposome: active in 2% quaternised soya liposome; for Depigmenting effect: rate of enzymatic reaction (tyrosinase activity), Lipsosome: active in 5% lecithin liposome
# T1 construct: on normal human melanocytes cultivated in 24-well plates and pre-confluent; endogenous in cells; host or cells: normal human melanocytes
# T1 sequence (P14679 19-529): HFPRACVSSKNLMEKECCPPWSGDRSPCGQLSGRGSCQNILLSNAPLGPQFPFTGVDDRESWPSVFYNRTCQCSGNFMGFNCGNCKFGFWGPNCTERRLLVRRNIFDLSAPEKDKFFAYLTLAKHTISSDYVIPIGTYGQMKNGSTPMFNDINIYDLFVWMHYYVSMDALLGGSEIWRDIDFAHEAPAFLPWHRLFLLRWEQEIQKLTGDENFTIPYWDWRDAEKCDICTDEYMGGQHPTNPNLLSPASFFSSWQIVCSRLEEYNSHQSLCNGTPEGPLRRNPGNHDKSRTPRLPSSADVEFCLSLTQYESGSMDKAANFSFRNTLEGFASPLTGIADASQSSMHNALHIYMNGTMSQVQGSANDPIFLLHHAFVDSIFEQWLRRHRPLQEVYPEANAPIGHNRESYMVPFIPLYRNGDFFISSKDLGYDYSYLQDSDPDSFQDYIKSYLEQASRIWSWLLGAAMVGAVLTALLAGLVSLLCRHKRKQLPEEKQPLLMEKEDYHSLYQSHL
# Protocol: Actives are also co-encapsulated: Phytolight® (Coletica, Lyons, France) without 0.05% preservative (cocktail of plant actives), 0.05% arbutine and 1 mM catechin (Sigma). […] The actives which are liposomed or not are incubated for 66 hours at 37° C. under 5% CO2 in MMK2 medium (Sigma). […] The formation of a MBTH-o-quinone compound is characterised by an absorbance value at 490 nm quantified kinetically. The tyrosinase activity is expressed by the slope (rate) of the enzymatic reaction.
# normal human fibroblasts [4] = assay: Cell viability in the screening of functionalising molecules; details: 1% of molecule (25 kDa PEI: 50 μM), 96-well plate
# Protocol: 250 μl of liposomal suspension is added onto cultures of normal human fibroblasts extracted from abdominal plasy and cultivated in a 96-well plate. Each concentration is tested on 6 different wells. The cell viability is evaluated by a test with paranitrophenylphosphate which determines the intracellular alkaline phosphatase activity after three rinses with pH 7.4 phosphate buffer. The percentage of living cells is calculated with respect to a control made without the addition of liposome in the culture well (n=6).
# 55 molecules are firstly tested in triplicate, in comparison with the 50 μM 25 kDa PEI. The intracellular penetration is quantified after 24 hours of incubation on normal human fibroblasts cultivated in 24-well plates as described in Example 2. The cell viability is estimated in a 96-well plate with 200 μl of liposomal suspension.
# The intracellular penetration and the cytotoxicity are evaluated as described in Example 2.
molecule,measurement,setting,value
"Cc1ccc(N(CC(=O)[O-])CC(=O)[O-])c(OCCOc2cc3cc(-c4ncc(C(=O)[O-])o4)oc3cc2N(CC(=O)[O-])CC(=O)[O-])c1.[K+].[K+].[K+].[K+].[K+] [#F-1200 Fura-2. pentapotassium salt, Fura-2. pentapotassium salt]",cell-permeating,normal human fibroblasts [1],No
same,Penetration in liposome,normal human fibroblasts [1],No
same,Toxicity,normal human fibroblasts [2],No
same,Encapsulated,[3],No
OC[C@H]1O[C@@H](Oc2ccc(O)cc2)[C@H](O)[C@@H](O)[C@@H]1O [Arbutin],"Depigmenting effect: rate of enzymatic reaction (tyrosinase activity), Free",tyrosinase,0.004
same,"Depigmenting effect: rate of enzymatic reaction (tyrosinase activity), PEI Liposome",tyrosinase,0
same,"Depigmenting effect: rate of enzymatic reaction (tyrosinase activity), Soya liposome",tyrosinase,0
same,"Depigmenting effect: rate of enzymatic reaction (tyrosinase activity), Lipsosome",tyrosinase,0.001
"CCCCCCCCCCN [Decylamine C10, Decylamine]",Viability,normal human fibroblasts [4],68.5%
"CCCCNCCCC [Dibutylamine 2 C4, Dibutylamine]",Viability,normal human fibroblasts [4],75.7%
"CCCCCCCCCCNCCCCCCCCCC [Didecylamine 2 C10, Didecylamine]",Viability,normal human fibroblasts [4],28.3%
"CCCCCCCCNCCCCCCCC [Dioctylamine 2 C8, Dioctylamine]",Viability,normal human fibroblasts [4],34.7%
"CCCCCCCCCCCCN [Dodecylamine C12, Dodecylamine]",Viability,normal human fibroblasts [4],57%
"CCCCCCCN [Heptylamine C7, Heptylamine]",Viability,normal human fibroblasts [4],39.4%
"CCCCCCN [Hexylamine C6, Hexylamine]",Viability,normal human fibroblasts [4],82.1%
"CCCCCCCCCCCCCCCCCCN [Octadecylamine C18, Octadecylamine]",Viability,normal human fibroblasts [4],61.2%
"CCCCCCCC/C=C\CCCCCCCCN [Oleylamine C18:1, Oleylamine]",Viability,normal human fibroblasts [4],87.1%
"O=C1OC2(c3ccc(O)cc3Oc3cc(O)ccc32)c2ccc(NC(=O)c3c(F)c(F)c(F)c(F)c3F)cc21 [PFB-F, 5-pentafluorobenzoylaminofluorescein]",Penetration (fluorescence after washing),normal human fibroblasts [1],65 (gain 45)
same,cell-permeating,normal human fibroblasts [1],No
same,Penetration free probe,normal human fibroblasts [1]; free tracer,8 (gain 45)
same,Penetration in liposome,normal human fibroblasts [1],Yes
same,Cell viability (% of untreated control),normal human fibroblasts [2],110.7%
same,Encapsulated,[3],Yes
same,leak,[3],No
same,Yield (%) of encapsulation of PFB-F,[3]; PEI 0 μM,89.0%
same,Yield (%) of encapsulation of PFB-F,[3]; PEI 1 μM,92.3%
same,Yield (%) of encapsulation of PFB-F,[3]; PEI 10 μM,91.0%
same,Yield (%) of encapsulation of PFB-F,[3]; PEI 50 μM,87.5%
same,Yield (%) of encapsulation of PFB-F,[3]; PEI 100 μM,86.3%
same,yield of incorporation in the liposomes,[3]; liposomes based on soya lecithin,about 80%
"CCCCCCCCCCCCCCCN [Pentadecylamine C15, Pentadecylamine]",Viability,normal human fibroblasts [4],73%
"CCCN [Propylamine C3, Propylamine]",Viability,normal human fibroblasts [4],103.3%
"CCCCCCCCCCCCCCCCCC[N+](C)(C)Cc1ccccc1.[Cl-] [Stearalkonium chloride, benzyldimethyl (octadecyl) ammonium chloride]",Viability,normal human fibroblasts [4],37.4%
"CCCCCCCCCCCCCCN [Tetradecylamine C14, Tetradecylamine]",Viability,normal human fibroblasts [4],54.8%
CC(O)CN(CCN(CC(C)O)CC(C)O)CC(C)O (stereo not shown) [Tetrahydroxypropyl ethylenediamine],Viability,normal human fibroblasts [4],95.3%
"CCCCCCCCCCCCCN [Tridecylamine C13, Tridecylamine]",Viability,normal human fibroblasts [4],62.6%
"CCCCCCCCCCCN [Undecylamine C11, Undecylamine]",Viability,normal human fibroblasts [4],84%
NNC(=O)COc1cc(S(=O)(=O)[O-])c2ccc3c(S(=O)(=O)[O-])cc(S(=O)(=O)[O-])c4ccc1c2c43.[Na+].[Na+].[Na+] [cascade blue hydrazine trisodium salt],cell-permeating,normal human fibroblasts [1],No
same,Penetration in liposome,normal human fibroblasts [1],Very low
same,Toxicity,normal human fibroblasts [2],No
same,Encapsulated,[3],Yes
"O=S(=O)([O-])c1cc(O)c2ccc3c(S(=O)(=O)[O-])cc(S(=O)(=O)[O-])c4ccc1c2c34.[Na+].[Na+].[Na+] [hydroxypyrene trisulfonic acid, trisodium salt]",cell-permeating,normal human fibroblasts [1],No
same,Penetration in liposome,normal human fibroblasts [1],No
same,Encapsulated,[3],No
Catechin,"Depigmenting effect: rate of enzymatic reaction (tyrosinase activity), Free",tyrosinase,0.007
same,"Depigmenting effect: rate of enzymatic reaction (tyrosinase activity), PEI Liposome",tyrosinase,0
same,"Depigmenting effect: rate of enzymatic reaction (tyrosinase activity), Soya liposome",tyrosinase,0.003
same,"Depigmenting effect: rate of enzymatic reaction (tyrosinase activity), Lipsosome",tyrosinase,0.007
Lysosensor yellow/blue DND 160 [#L7545L Lysosensor yellow/blue DND 160],cell-permeating,normal human fibroblasts [1],Yes
same,Penetration in liposome,normal human fibroblasts [1],No
same,Toxicity,normal human fibroblasts [2],No
same,Encapsulated,[3],Yes
same,leak,[3],Yes
carboxy dichlorofluorescein [#C-369 carboxy dichlorofluorescein],cell-permeating,normal human fibroblasts [1],Yes
same,Encapsulated,[3],Yes
same,leak,[3],Yes
carboxyethyl carboxyffluorescein [#B-1151 carboxyethyl carboxyffluorescein],Encapsulated,[3],No
dextran texas red [#D-3329 dextran texas red],cell-permeating,normal human fibroblasts [1],No
same,Penetration in liposome,normal human fibroblasts [1],No
sulfo fluorescein diacetate [#S-1129 sulfo fluorescein diacetate],cell-permeating,normal human fibroblasts [1],no
same,Penetration in liposome,normal human fibroblasts [1],Very low
same,Toxicity,normal human fibroblasts [2],No
tetramethylrhodamine isothiocyanate [TRITC],Penetration (fluorescence after washing),normal human fibroblasts [1],"1,119 (gain 50)"
same,penetration when added free in the culture medium (in words),normal human fibroblasts [1]; free tracer,penetrates slightly
same,Penetration free probe,normal human fibroblasts [1]; free tracer,295 (gain 50)
same,Penetration in liposome,normal human fibroblasts [1],Yes
same,Toxicity,normal human fibroblasts [2],No
same,cytotoxicity (in words),normal human fibroblasts [2],slightly cyctotoxic
same,Cell viability (% of untreated control),normal human fibroblasts [2],74.8%
same,Encapsulated,[3],Yes
